The values that follow are results of earlier work, collected in patent publication US9637731B2, “Heavy metal stabilization and methane inhibition during induced or naturally occurring reducing conditions in contaminated media” (Innovative Environmental Technologies, Inc., priority 2013, dated 2017).

For data set [1], the system named is pure methanogenic bacteria.
For data set [2], the system named is F420-dependent NADP oxidoreductase enzyme. Particulars: 3D protein model.

For `CC[C@H](C)C(=O)O[C@H]1C[C@@H](C)C=C2C=C[C@H](C)[C@H](CC[C@@H]3C[C@@H](O)CC(=O)O3)[C@H]21` [lovastatin, Lovastatin], the methane formation result with Methanobrevibacter was “significantly inhibited”. Besides, in the data set with Methanobrevibacter (per ml of culture medium), the “concentration that completely inhibited growth” value was 10 nmol/mL. Moreover, the IC50 in the data set on Methanobrevibacter (per ml of culture medium, read-out: concentration resulting in 50% inhibition of growth) is 4 µM. Moreover, in the data set with non-methanogens, the “populations of the non-methanogens” value was “not affected”. Moreover, in data set [1], the “growth and activity of pure methanogenic bacteria” value is “significantly reduced”. Also, the “effect on cellulolytic bacteria” value in the data set with cellulolytic bacteria is reported as “without any negative effect”. Besides, in data set [2], the “affinity for the model protein compared to the natural ligand F420” value is recorded as “more affinity”.

Regarding `CC[C@H](C)C(=O)O[C@H]1CCC=C2C=C[C@H](C)[C@H](CC[C@@H]3C[C@@H](O)CC(=O)O3)[C@H]21` [compactin], in data set [2], the “affinity for the model protein compared to the natural ligand F420” value is “more affinity”.
